Source: patent publication EP2711366A1, “Cationic triphenylamine derivatives activable by visible and Infra Red light for inducing and imaging apoptosis in cancer cells” (Institut Curie, priority 2012, dated 2014)
Like-named read-outs stand apart in the source and are kept apart here. Numbered stars: 1 amine (or outer) side, 2 acyl side, 3 side chain; on linkers, the order of the positions; unused ones are H or OH. Bridge positions count the residues as written; N and C are the ends. Square brackets hold non-standard residues; d marks the D form. Peptide text beside a SMILES is read from it. I, II: the chains in the order shown. Actinocin(9to1) = Cc1c2oc3c(C)ccc(C(=O)[*:1])c3nc-2c(C(=O)[*:2])c(N)c1=O; NMeV = CN[C@H](C(=O)O)C(C)C; Sar = CNCC(=O)O

What was measured:
[1] = Dark toxicity (MTT assay, without illumination); format: cell-based; conditions: human; MCF-7 cells, tested in dark; read-out: TC50 (toxicity concentration 50%), dark toxicity
Experimental: (§1) Different experiments were conducted and described below: • MCF7 cells were treated with 2µM of TP2Py or TP3Bzim and exposed to illumination (Fig.9A); • HeLa cells were treated with 2µM of TP2Py or TP3Bzim and exposed to illumination (Fig.9B); • MCF7 cells were treated with TP2Py, 40 min illumination (black circles) or without illumination (white circles) (Fig.9C) • HeLa cells were treated with TP2Py [30 min illumination (black circles) or without illumination (white circles)] or TP3Bzim [15 min illumination (black triangles) or without illumination (white triangles)]
(§2) For each experiment, the source of excitation was a Mercury lamp (130W; 380-600nm) with an excitation filter centered at 452nm (± 45 nm), irradiance, 60mW/cm^2.
(§3) First, the experiment was calibrated by determining the time of illumination exposure which leads to the toxicity 50%, for a given concentration of TPA (2 µM) and for an irradiance of 60mW/cm^2. […] This characteristic time was then used for the plots shown in Fig. 9C and 9D which represent the cell viability as a function of TPA concentration (in HeLa and MCF-7 cells, respectively).

[2] = 532 or 665-nm line laser sources; cited from earlier work
[3] = cited from earlier work
[4] = at 630 nm; cited from earlier work
HeLa cells [5] = tested on: HeLa cells
Experimental: as §1, §2, §3

HeLa cells [6] = experiment: Cytophototoxicity by MTT assay under illumination; format: cell-based; conditions: irradiance 60mW/cm^2
Experimental: as §1, §2, §3

DNA = conditions: b156 attributes 634 nm to DNA-bound TP2Py in vitro (Allains et al. 2007); cited from earlier work
living MCF-7 cells = experiment: One-photon confocal fluorescence microscopy, photo-induced nuclear translocation and membrane blebbing; format: cell-based; conditions: 2µM, 2 hours, confocal, λexc 458 nm (Fig. 5)
Experimental: One-photon epifluorescence and confocal images were obtained using a SP2 confocal microscope (Leica MicroSystem) equipped with an incubation chamber (37°C, CO2 5%). Excitation and emission filters for epifluorescence were 450-490 nm and 515-700 nm, respectively. A continuous laser line (458 nm) was used for excitation in the confocal mode.
The photo-induced nuclear translocation and membrane blebbing were next assessed using confocal fluorescence microscopy [λexc = 458 nm; emission slit settings: 560-720nm and 530-690nm for TP2Py and TP3Bzim, respectively] under experimental conditions similar to those described in experiment 1 for epifluorescence experiments. The corresponding transmission images illustrating the concomitant membrane blebbing are shown below the confocal fluorescence images. Living MCF7 cells were incubated with 2µM TP3Bzim or TP2Py for 2 hours before observation. As shown in Fig. 5A (TP2Py) and in Fig. 5B (TP3BZim), the results obtained with confocal imaging were similar to those obtained with epifluorescence imaging (experiment 1), with however, some discrepancies in the time courses of event appearance, most likely due to the power of the excitation source which is different between epifluorescence and confocal experiments (see below). […] Based on both criteria (re-localization of the fluorescence signal and the formation of blebs), the deduced fluences were 22 and 40 J/cm^2 for TP2Py and TP3Bzim, respectively. […]
The TP2Py compound at a concentration of 2 µM was first incubated with living MCF-7 cells for 2 hours and then observed with confocal microscope with varying illumination power of the laser source [λ=458 nm; emission slit setting: 560-720 nm]. […] For each condition, the fluorescence intensity in ROIs corresponding to the nucleus was plotted as a function of time (the initial time value, t = 0, represents the first observation) (FIG.7C). Using integration time based on tmax values, light dose values, determined from experiments performed at irradiance of 5.6 or 30 mW/cm^2, were consistent (27.6 and 27 J/cm^2 respectively). These values are in accordance with the above-mentioned value for TP2Py (fluence, 22 J/cm^2 in Fig. 5).
Living MCF-7 cells were treated with varying concentrations of TP2Py for two hours (2µM; 0.2µM and 0.02µM) and observed with a confocal microscope [λexc = 458nm; irradiance 30mW/cm^2, emission slit setting: 560-720nm.] (FIG 8A: 2µM; FIG 8B: 0.2µM; FIGBC: 0.02µM).

[7] = in water up to 10 µM; cited from earlier work
MCF-7 cells = experiment: FITC-conjugated Annexin V staining, flow cytometric analysis (apoptosis); format: cell-based; conditions: proapoptotic controls, no illumination; ActD 1µg/mL; CPT 10µM for 2.5 hours
Experimental: MCF-7 cells were plated in 12-well plates (2.10^5 cells/well) and incubated with 2µM of TP2Py for 2h at 37°C. Under specific conditions (see Fig. 12), cells were further incubated with NAC (1mM) for 30 min, Bapta-AM (20µM) for 3h, or CsA (10µM) for 1h at 37°C. After a time illumination of either 30 or 60 min at […] (Mercury lamp (130W; 380-600nm) + excitation filter centered at 452nm (± 45nm)), cells were gently scraped and pooled with medium floating cells. Cells were individualized in PBS-EDTA (10mM) and stained as described by the manufacturer (Roche, Germany). Briefly, the cell pellet was re-suspended in 500µl Annexin V-HEPES solution (10 mM HEPES-NaOH, pH 7.4, 140mM NaCl, 5mM CaCl2) and incubated on ice for 30 min in the dark. Cells were then washed in ice-cold HEPES buffer before analysis. Fluorescence signals of fluorescently labelled (FITC) Annexin V and TP2Py were measured by a FACSCalibur flow cytometer (Becton-Dickinson, Sunnyvale, CA, USA) using FL1 and FL2 detectors, respectively.
Different experiments are summarized below: • MCF-7 cells treated with 2µM TP2Py for 2 hours and then stained with FITC-conjugated Annexin V immediately (Fig.12A) without light exposure; • MCF-7 cells treated with 2µM TP2Py for 2 hours and then stained with FITC-conjugated Annexin V after a time illumination (Exc, 452 nm) of 30 min (Fig.12B); • MCF-7 cells treated with 2µM TP2Py for 2 hours and then stained with FITC-conjugated Annexin V after a time illumination (Exc, 452 nm) of 60 min (Fig.12C); • control MCF-7 cells treated with DMSO (1%) only and illuminated for 30 min before Annexin V staining (Fig.12D); • control MCF-7 cells treated with 1µg/mL actinomycin D (ActD), no illumination before Annexin V staining (Fig.12E); • control MCF-7 cells treated with camptothecin (CPT, 10µM)) (Fig.12F) for 2.5 hours, no illumination before Annexin V staining; • MCF-7 cells treated during 2 hours with 2µM TP2Py and 10µM cyclosporine A (CsA) and illuminated for 30 min before Annexin V staining (Fig.12G); • MCF-7 cells treated during 2 hours with 2µM TP2Py and 1 mM N-Acetyl cysteine (NAC) and illuminated for 30 min before Annexin V staining (Fig.12H); and • MCF-7 cells treated during 2 hours with 2µM TP2Py and 20µM Bapta-am (Fig.12I) and illuminated for 30 min before Annexin V staining.
The horizontal (FL1-H) and vertical (FL2-H) axes correspond to the fluorescence signal of Annexin V and TP2Py, respectively. The percentage of population with a high mean fluorescence signal is indicated in the corresponding quadrant (top right or bottom right in the presence or absence of TP2Py, respectively).

Which CC50 [1] does the source give for `C[n+]1ccccc1/C=C/c1ccc(N(c2ccccc2)c2ccc(/C=C/c3cccc[n+]3C)cc2)cc1` [Tp2Pyo] here?
The CC50 was 20 µM.

Which “total fluence or light dose” value [2] does the source give for `CC(=O)Oc1c(I)cc2c(c1I)Oc1c(cc(I)c(OC(C)=O)c1I)C21OC(=O)c2c(Cl)c(Cl)c(Cl)c(Cl)c21` [RBA, Rose Bengal acetate] here?
The value was 1.6 J/cm^2.

Which two-photon cross-section ([3]; at 800 nm) does the source give for Photofrin® here?
Its two-photon cross-section is 10 GM.

And the two-photon cross-section ([3]; at 900 nm)?
The two-photon cross-section was 5 GM.

And the extinction coefficient [4]?
The extinction coefficient was 3200 M⁻¹ cm⁻¹.

For `Cn1c(/C=C/c2ccc(N(c3ccc(/C=C/c4n(C)c5ccccc5[n+]4C)cc3)c3ccc(/C=C/c4n(C)c5ccccc5[n+]4C)cc3)cc2)[n+](C)c2ccccc21` [TP3Bzim], which “dark toxicity (concentration below which negligible)” value (HeLa cells [5]) is on record?
The value was at least 50 µM.

What about the “illumination time required for the same TC50 under illumination” value (HeLa cells [6]; Mercury lamp, filter 452nm) of the same compound?
Its value is 15 min.

What about the corresponding light dose (HeLa cells [6]) of the same compound?
The corresponding light dose was 54 J/cm^2.

And the “λmax,emission” value (DNA)?
Its value is 572 nm.

And the CC50 [1]?
Its CC50 is over 30 µM.

And the “deduced fluence (re-localization of the fluorescence signal and formation of blebs)” value (living MCF-7 cells)?
Its value is 40 J/cm^2.

With `C=Cc1c(C)c2cc3nc(c(CC(=O)O)c4[nH]c(cc5nc(cc1[nH]2)C(C)=C5CC)c(C)c4C(=O)O)[C@@H](CCC(=O)O)[C@@H]3C` [chlorin e6] as the compound, how does the two-photon cross-section ([3]; at 800 nm) read?
Its two-photon cross-section is 29 GM.

What about the quantum yield [7] of the same compound?
The quantum yield was 0.008-0.01.

Which “total fluence or light dose” value [2] does the source give for `CN(C)c1ccc2nc3ccc(=[N+](C)C)cc-3sc2c1` [MB, methylene blue] here?
The value was 1.7 J/cm^2.

For `Cn1c(/C=C/c2ccc(N(c3ccccc3)c3ccc(/C=C/c4n(C)c5ccccc5[n+]4C)cc3)cc2)[n+](C)c2ccccc21` [Tp2Bzim], which CC50 [1] is on record?
Its CC50 is 10 µM.

Which “HMFI population (Annexin V positive, TP2Py negative)” value (MCF-7 cells) does the source give for `Cc1c2oc3c(C)ccc(C(=O)N[C@@H]4C(=O)N[C@H](C(C)C)C(=O)N5CCC[C@H]5C(=O)N(C)CC(=O)N(C)[C@@H](C(C)C)C(=O)O[C@@H]4C)c3nc-2c(C(=O)N[C@@H]2C(=O)N[C@H](C(C)C)C(=O)N3CCC[C@H]3C(=O)N(C)CC(=O)N(C)[C@@H](C(C)C)C(=O)O[C@@H]2C)c(N)c1=O` [actinomycin D, reference compound] (I: T[dV]P[Sar][NMeV] / II: T[dV]P[Sar][NMeV]; ester I:1-I:C, II:1-II:C; linker I:N-II:N via Actinocin(9to1)) here?
Its value is 34%.

For `CN(C)c1ccc(C(=C2C=CC(=[N+](C)C)C=C2)c2ccc(N(C)C)cc2)cc1` [CV, crystal violet], which “total fluence or light dose” value [2] is on record?
Its value is 1.7 J/cm^2.

For `CC[C@@]1(O)C(=O)OCc2c1cc1n(c2=O)Cc2cc3ccccc3nc2-1` [camptothecin, reference compound], which “HMFI population (Annexin V positive, TP2Py negative)” value (MCF-7 cells) is on record?
Its value is 37%.
